Measured values from patent publication US9873883B2, “Glyphosate resistant plants and associated methods” (Dow AgroSciences LLC, priority 2012, dated 2018).
Values joined by “and” are separate entries in the source; they are usually repeats but may differ in a detail not shown here. Identical values can stand only once.

How the values were obtained:
T0 corn = experiment: Postemergence herbicide tolerance in dgt-14 transformed T0 corn; assay type: in vivo, Zea mays; conditions: example written in present tense
Experimental: T0 events are allowed to acclimate in the greenhouse and are grown until two to four new, normal looking leaves emerge from the whorl (i.e., plants that transition from tissue culture to greenhouse growing conditions). Plants are grown at 27° C. under 16 hour light:8 hour dark conditions in the greenhouse. The plants are then treated with commercial formulations of Durango DMA™ (containing the herbicide glyphosate) with the addition of 2% w/v ammonium-sulfate. Herbicide applications are made with a track sprayer at a spray volume of 187 L/ha, 50-cm spray height. T0 plants are sprayed with a range of glyphosate from 280-4480 g ae/ha glyphosate, which is capable of significant injury to untransformed corn lines. A lethal dose is defined as the rate that causes >95% injury to the B104 inbred.
Selected T0 plants are selfed or backcrossed for further characterization in the next generation. Additional experiments include a 100 plant progeny test which is conducted on chosen dgt-14 lines containing the T1 plants. All plants are sprayed with 140-1120 g ae/ha glufosinate or 105-1680 g ae/ha glyphosate as previously described. […] At fourteen DAT, resistant and sensitive plants are counted to determine the percentage of lines that segregated as a single locus, dominant Mendelian trait (3R:1S) as determined by Chi square analysis. […]

[1] = tested on: Arabidopsis transformed with TraP9 v2::dgt-14 (pDAB105527); experiment: Postemergence glyphosate tolerance, visual injury; assay type: in vivo, Arabidopsis thaliana; conditions: 2 weeks after application
[2] = molecular target: bacterial EPSP synthase DGT-18 (GENBANK NP_928909.1) variant DGT-18 v6 (G→A at residue 96), SEQ ID NO:9 (Photorhabdus laumondii, UniProt Q7N6D5, G96A); experiment: In vitro kinetic assay (inorganic phosphate production, malachite green); conditions: IC50 (glyphosate)
Text: (§1) The novel DGT-14, DGT-12, DGT-18, DGT-29 and DGT-30 enzymes were obtained and the glycine to alanine mutation was introduced into the EPSP synthase enzymes at a location analogous to the G96A location described for the E. coli version of the EPSP synthase enzyme. The DGT-14 protein sequence was modified by introducing an alanine to replace the endogenous glycine of GENBANK ACC NO: ZP_01452683 at amino acid residue 101, thereby resulting in SEQ ID NO:1. The DGT-12 protein sequence was modified by introducing an alanine to replace the endogenous glycine of GENBANK ACC NO: ZP_01622155.1 at amino acid residue 111, thereby resulting in SEQ ID NO:7. The DGT-18 protein sequence was modified by introducing an alanine to replace the endogenous glycine of GENBANK ACC NO: NP_928909.1 at amino acid residue 96, thereby resulting in SEQ ID NO:9. The DGT-29 protein sequence was modified by introducing an alanine to replace the endogenous glycine of GENBANK ACC NO: YP_322772.1 at amino acid residue 96, thereby resulting in SEQ ID NO:11. The DGT-30 protein sequence was modified by introducing an alanine to replace the endogenous glycine of GENBANK ACC NO: ZP_02156189.1 at amino acid residue 96, thereby resulting in SEQ ID NO:13.
(§2) The synthesized genes were cloned into the pET28 expression vector.
(§3) Recombinant DGT proteins were overexpressed in Rosetta2™ (DE3) cells (Novagen, Madison, Wis.) from the constructs described above. A single colony was used to inoculate 50 mL starter cultures of LB containing chloramphenicol (25 μg/mL) and kanamycin (50 μg/mL) which were cultivated overnight at 37° C. The overnight cultures were used to inoculate 1 L of LB containing chloramphenicol (25 μg/mL) and kanamycin (50 μg/mL). The cultures were grown at 37° C. to an O.D.600=0.6 then placed in an ice water bath for 10 minutes. Expression of the target proteins was achieved by addition of IPTG to a final concentration of 500 μM. Induction was allowed to proceed overnight at 20° C. followed by harvesting via centrifugation at 8,000 rpm for 20 minutes. The cell pellets were stored at −80° C. until required for purification. All purification steps were carried out at 4° C.

[3] = molecular target: bacterial EPSP synthase DGT-30 (GENBANK ZP_02156189.1) variant DGT-30 v6 (G→A at residue 96), SEQ ID NO:13 (Shewanella benthica, UniProt A9CYU9, G96A); experiment: as above; conditions: IC50 (glyphosate)
Text: as §1, §2, §3

[4] = molecular target: bacterial EPSP synthase DGT-29 (GENBANK YP_322772.1) variant DGT-29 v6 (G→A at residue 96), SEQ ID NO:11 (Trichormus variabilis, UniProt Q3MAV9, G96A); experiment: as above; conditions: IC50 (glyphosate), values greater than 50 are estimates
Text: as §1, §2, §3

[5] = tested on: Arabidopsis transformed with TraP13 v2::dgt-14 (pDAB105529); experiment: Postemergence glyphosate tolerance, visual injury; assay type: in vivo, Arabidopsis thaliana; conditions: 2 weeks after application

O=C(O)CNCP(=O)(O)O [glyphosate, N-(phosphonomethyl)glycine]
glyphosate concentration controlling non-transformed plants (T0 corn): ≥ 280 g ae/ha
Visual % injury (Ave) ([1]; T2, 840 g ae/ha): 0.0%
Visual % injury (Ave) ([1]; T3, 840 g ae/ha): 0.0%
IC50 ([2]; at 60 μM PEP): 9.24 mM
IC50 ([2]; at 1 mM PEP): 33.2 mM
IC50 ([3]; at 60 μM PEP): 7.86 mM
IC50 ([3]; at 1 mM PEP): 15.6 mM and 15.5 mM
IC50 ([4]; *determined at 100 μM PEP): > 80 mM
IC50 ([4]; at 1 mM PEP): > 80 mM
Visual % injury (Ave) ([5]; T2, 840 g ae/ha): 1.3%
Visual % injury (Ave) ([5]; T3, 840 g ae/ha): 0.0%
